Patent US6423689B1, “Peptidyl calcium channel blockers” (Warner-Lambert Company, priority 1997, dated 2002)

What was measured:
[1] = system: L-type Ca2+ channels in GH3 cells; assay: Inhibition of L-type calcium flux in GH3 cells (Indo-1 fluorescence); type: cell-based, rat
Description: Measurement of L-type Ca^2+ Channel Blocking Potencies of Compounds in GH3 Cells Using the Fluorescent Ca^2+ Indicator Indo-1
The GH3 rat pituitary cell line was obtained from the American Type Culture Collection (Rockville, Md.). Cells were grown in Ham's F-10 medium with 15% horse serum, 2.5% fetal bovine serum (FBS), and […] (Gibco, Gaithersburg, Md.). Confluent cells were detached using 0.5 mM EDTA and loaded with 5 μM Indo-acetoxymethyl ester (Molecular Probes, Eugene, Oreg.) in 1% bovine serum albumin (BSA) containing assay buffer (10 mM HEPES/Tris pH 7.4 in Hank's Balanced Salt Solution without bicarbonate or phenol red) for 60 minutes at 30° C. Loaded cells were washed twice, resuspended (approx. 10^7 cells/mL) in assay buffer containing 0.5% BSA, and kept on ice until use (<3 hrs). Different concentrations of the test compounds (60 μL in dimethyl sulfoxide) or controls were added to 5.94 mL of assay buffer containing approximately 3×10^6 loaded cells, and the samples were incubated for 10 minutes at 30° C. After incubation, samples were aliquoted into 3 cuvettes, and their fluorescence was measured with a Photon Technology International (PTI, South Brunswick, N.J.) Model RF-F3004 spectrofluorometer thermostatted at 30° C. Excitation was set at 350 nm and dual emissions were recorded at 400 and 490 nm. Basal emission signals were acquired for 20 seconds, followed by the depolarization of cells by the addition of 200 μL of a stimulation solution (1 M KCl, 68 mM CaCl2) to the stirred cuvette. Emission signals were acquired for an additional 50 seconds after depolarization. Ratio of emission signals (F400 nm/F490 nm), which is proportional to intracellular Ca^2+ concentration, was plotted against time, and the difference between the emission ratio 50 seconds after stimulation and its basal value (before stimulation) was determined. Values obtained in this way were considered as measures of depolarization-induced Ca-flux through L-type channels and plotted as a function of drug concentration. IC50 values of test compounds were calculated by fitting a four-parameter logistic function to the data using the least squares method.

Row | SMILES | IC50 [1] [µM] | melting point [°C]
1 | CC(C)C[C@H](NC(=O)N1CCCCCC1)C(=O)N[C@@H](Cc1ccc(OCc2ccccc2)cc1)C(=O)OC(C)(C)C [Example 1] | 4.48 | 
2 | CC(C)(C)OC(=O)[C@H](Cc1ccc(OCc2ccccc2)cc1)NC(=O)[C@H](Cc1ccccc1)NC(=O)N1CCCCCC1 [Example 16] | 4.3 | 
3 | CC(C)C[C@H](NC(=O)N1CCCCCC1)C(=O)N[C@@H](Cc1ccc(C=Cc2ccccc2)cc1)C(=O)NC(C)(C)C [Example 141, [S-(R*,R*)]-Azepane-1-carboxylic acid {1-[1-tert-butylcarbamoyl-2-(4-styryl-phenyl)-ethylcarbamoyl]-3-methyl-butyl}-amide] |  | 95 to 96
4 | CC(C)C[C@H](NC(=O)N1CCCCCC1)C(=O)N[C@@H](Cc1ccc(C#CC2(O)CCCCC2)cc1)C(=O)NC(C)(C)C [Example 138, [S-(R*,R*)]-Azepane-1-carboxylic acid (1-({-tert-butylcarbamoyl-2-[4-(1-hydroxy-cyclohexylethynyl)-phenyl]-ethylcarbamoyl}-3-methyl-butyl)-amide] |  | 120 to 122
